From ChEMBL document CHEMBL1201862, “PubChem BioAssay data set” (2004)
Several values for one entry are separate records, joined by “and”; a condition that tells them apart may be missing. Identical values can stand only once.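 Step 1: Grow cells in 96-well plates. Step 2: Expose to compound for 48 hours at 5 concentrations. Step 3: Interpolate endpoints linearly; if unreached, use highest concentration. At the GI50, growth is halved.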 Activity calls are given as the source filed them. Cut-off read from the data, not from the text of the source: active = GI50 up to about 1.1 µM and inactive = higher.

Tests used:
Test in all cases: DTP human tumour cell line panel, 48 h
[1] = tested on: 786-0
[2] = tested on: ACHN
[3] = tested on: HOP-92
[4] = tested on: Hs-578T
[5] = tested on: IGROV-1
[6] = tested on: MDA-MB-435
[7] = tested on: MOLT-4
[8] = tested on: NCI-H23
[9] = tested on: NCI-H460
[10] = tested on: OVCAR-4
[11] = tested on: SF-268
[12] = tested on: SK-MEL-2
[13] = tested on: SR
[14] = tested on: UACC-257
[15] = tested on: UACC-62
[16] = tested on: EKVX
[17] = tested on: HCT-15
[18] = tested on: HOP-62
[19] = tested on: K562
[20] = tested on: U-251

Measured: GI50

O=C1C(Cl)=C(N2CCSCC2)C(=O)c2c(O)ccc(O)c21
inactive: [14] 1.51 µM
active: [1] 0.1 µM | [2] 0.424 µM | [3] 1.02 µM | [4] 0.501 µM | [5] 0.776 µM | [6] 0.631 µM | [7] 0.641 µM | [8] 0.273 µM | [9] 0.494 µM | [10] 0.552 µM | [11] 0.514 µM | [12] 0.204 µM | [13] 0.292 µM | [15] 0.525 µM

O=C(NC1=C(Cl)C(=O)c2ccccc2C1=O)c1ccccc1
25.2 µM: [17]
inactive: [1] 45.4 µM | [2] 20.8 µM | [16] > 100 µM | [18] 85.3 µM | [3] 24.9 µM | [4] 69 µM | [5] 21.8 µM | [19] 21.8 µM | [6] 18.9 µM | [7] 20.1 µM | [8] 23.8 µM | [9] 40.3 µM | [10] 45.1 µM | [11] 64.1 µM | [13] 38.4 µM | [20] 27.8 µM | [14] > 10 µM | [15] 24.1 µM

COc1ccc(C(=O)c2cc(OC)c(OC)c(OC)c2)cc1OC
inactive: [1] 4.98 µM | [2] 9.25 µM | [16] > 100 µM | [18] 4.57 µM | [4] 2.7 µM | [5] 9.68 µM | [19] 2.28 µM | [7] 4.17 µM | [8] 10.2 µM | [9] 3.34 µM | [11] 7.8 µM | [12] 3.08 µM | [13] 3.28 µM | [20] 3.94 µM | [14] 27.2 µM | [15] 4.57 µM
1.58 µM: [17]
active: [6] 0.436 µM

CN(C)Cc1cc(Cl)c(O)c(CN(C)C)c1
> 100 µM: [17]
inactive: [1] > 100 µM | [2] > 100 µM | [16] > 100 µM | [18] > 100 µM | [3] > 100 µM | [4] > 100 µM | [5] > 100 µM | [19] > 100 µM | [6] > 100 µM | [8] > 100 µM | [9] > 100 µM | [10] > 100 µM | [11] > 100 µM | [12] > 100 µM | [13] > 100 µM | [20] > 100 µM | [14] > 100 µM | [15] > 100 µM

CC[C@]12C=CCN3CCC4(c5cc([C@@]6(C(=O)OC)CC7CN(CCc8c6[nH]c6ccccc86)CC6CCCCC67)c(OC)cc5N(C)C4[C@](O)(C(=O)OC)C1OC(C)=O)[C@@H]32 (stereo not given in full)
inactive: [10] 3.38 µM
0.111 µM: [17]
active: [1] < 0.01 µM | [2] < 0.0146 µM | [16] 0.743 µM | [18] < 0.01 µM | [3] < 0.01 µM | [4] < 0.01 µM | [5] < 0.01 µM | [19] < 0.01 µM | [6] < 0.01 µM | [7] < 0.01 µM | [8] < 0.01 µM | [9] < 0.01 µM | [11] < 0.01 µM | [12] < 0.01 µM | [20] < 0.01 µM | [14] < 0.01 µM | [15] < 0.01 µM

O=CCOCc1cc2c(cc1Br)OCO2
21.9 µM: [17]
inactive: [1] 17.3 µM | [2] 23.1 µM | [16] > 100 µM | [18] > 100 µM | [3] 43.9 µM | [4] 17.1 µM | [5] 32.8 µM | [19] 44.6 µM | [6] > 100 µM | [7] 30.1 µM | [8] 11.8 µM | [9] > 100 µM | [10] 20.9 µM | [11] 18.6 µM | [13] 24.7 µM | [20] 31 µM | [14] > 100 µM | [15] 43.4 µM

CCCCCCCCCCCCCCCCOP(=O)(O)OP(=O)(O)OCC1OC(n2ccc(N)nc2=O)CC1O (stereo not given)
> 100 µM: [17]
inactive: [1] > 100 µM | [2] > 100 µM | [16] > 100 µM | [18] > 100 µM | [3] > 100 µM | [4] > 100 µM | [5] > 100 µM | [19] > 100 µM | [6] > 100 µM | [7] > 100 µM | [8] > 100 µM | [9] > 100 µM | [10] > 100 µM | [11] > 100 µM | [12] > 100 µM | [20] > 100 µM | [14] > 100 µM | [15] > 100 µM

Nc1nc(Cl)cc(OCC2(CO)CCCCC2)n1
24.5 µM: [17]
inactive: [1] > 100 µM | [2] > 100 µM | [16] 84.7 µM | [18] > 100 µM | [3] 40.7 µM | [4] > 100 µM | [5] > 100 µM | [19] > 10 µM | [6] > 100 µM | [7] > 100 µM | [8] > 100 µM | [9] > 100 µM | [10] > 100 µM | [11] > 100 µM | [13] > 100 µM | [20] 86.5 µM | [14] 78.7 µM

CC(C)(Oc1ccccc1)C(=O)Sc1c(-c2ccccc2)c(=O)n(-c2ccccc2)c(=S)n1-c1ccccc1
inactive: [1] 31.2 µM | [2] 33.1 µM | [16] > 100 µM | [18] 22 µM | [3] > 100 µM | [4] 24.2 µM | [5] 22.6 µM | [19] 41.4 µM | [6] 20.6 µM | [7] 36.4 µM | [8] > 100 µM | [9] 27.3 µM | [10] 32.9 µM | [11] 26.9 µM | [13] 22.1 µM | [20] 21.6 µM | [14] > 100 µM | [15] 80 µM
56.6 µM: [17]

CNc1nc(C(N)=O)c(N)s1
inactive: [1] > 100 µM | [2] > 100 µM | [16] > 100 µM | [18] > 100 µM | [3] > 100 µM | [4] > 100 µM | [5] > 100 µM | [19] > 100 µM | [6] > 100 µM | [7] > 100 µM | [8] > 100 µM | [9] > 100 µM | [10] > 100 µM | [11] > 100 µM | [12] > 100 µM | [20] > 100 µM | [14] > 100 µM | [15] > 100 µM
> 100 µM: [17]

CCOC(=O)C(NC(=O)NCc1ccc(F)cc1)C(F)(F)F (stereo not given)
inactive: [1] > 100 µM | [2] > 100 µM | [16] > 100 µM | [4] > 100 µM | [5] > 100 µM | [19] > 100 µM | [6] > 100 µM | [7] > 10 µM | [8] > 100 µM | [11] > 100 µM | [12] > 100 µM | [13] > 100 µM | [20] > 100 µM | [14] > 100 µM
> 100 µM: [17]

CN(C)CCCNc1c2ccccc2[n+]([O-])c2ccccc12
41.4 µM: [17]
inactive: [1] 40.6 µM | [2] 49.1 µM | [16] 40.6 µM | [18] 43.5 µM | [3] 36.5 µM | [4] 22.6 µM | [5] 37.3 µM | [19] 31.4 µM | [6] 50.8 µM | [7] 42.4 µM | [8] 45.7 µM | [9] 27.5 µM | [10] 27.1 µM | [11] 74.6 µM | [12] > 100 µM | [20] 62.8 µM | [14] 56.8 µM | [15] > 100 µM

COc1ccc(-n2c(C)nc3ccc(NC4OCC(O)C(O)C4O)cc3c2=O)cc1 (stereo not given)
26.6 µM and 31.6 µM: [17]
inactive: [1] 34 µM and 30.5 µM | [2] 61.4 µM and 36.6 µM | [16] > 100 µM | [18] > 100 µM | [4] 51.8 µM and 41.8 µM | [5] > 100 µM and 55.1 µM | [19] 31.3 µM and 30.8 µM | [6] > 100 µM and 82.8 µM | [7] 22.3 µM and 31.5 µM | [8] 56.6 µM and 38.3 µM | [9] 72.9 µM and 40.5 µM | [10] > 100 µM | [11] > 100 µM | [12] > 100 µM | [13] 31.1 µM and 26.1 µM | [20] 60 µM and 49.2 µM | [14] > 100 µM | [15] 39.4 µM and 31.9 µM

O/N=C1/CCCCCC1NO (stereo not given)
inactive: [1] > 100 µM | [2] > 100 µM | [16] > 100 µM | [18] > 100 µM | [3] > 100 µM | [4] > 100 µM | [5] > 100 µM | [6] > 100 µM | [7] > 100 µM | [8] > 100 µM | [9] > 100 µM | [10] > 100 µM | [11] > 100 µM | [12] > 100 µM | [13] > 10 µM | [20] > 100 µM | [14] > 100 µM | [15] > 100 µM
> 100 µM: [17]

COC(=O)c1ccccc1/C=C1\Cc2ccc3c(c2C1=O)CCCC3
inactive: [1] > 100 µM | [2] > 100 µM | [16] > 100 µM | [18] > 100 µM | [4] > 100 µM | [5] > 100 µM | [19] > 100 µM | [6] > 100 µM | [7] > 100 µM | [8] > 100 µM | [9] > 100 µM | [10] > 100 µM | [11] > 100 µM | [12] > 100 µM | [13] > 100 µM | [20] > 100 µM | [14] > 100 µM | [15] > 100 µM
> 100 µM: [17]
